Results as given in article PMC6925493, “Casticin inhibits nasopharyngeal carcinoma growth by targeting phosphoinositide 3-kinase” (Cancer Cell International, 2019).

Tests used:
NPC cell lines = assay: CCK-8 cell viability assay, NPC cell lines; format: cell-based
Experimental: (§1) The effects of casticin on the growth of the 12 cell lines were determined using the Cell Counting Kit-8 (CCK-8) assay (Dojindo, Japan). Briefly, cells were plated in 96-well plates at 4 × 10^3 cells/well in 100 μL and were treated with a gradient of casticin concentrations (0, 1, 2, 4, 8 µM). After incubation for 24, 48, or 72 h, 10 μL of the CCK-8 reagent was added into each well, and the plate was incubated for an additional 1 or 2 h. Next, a microplate reader (Bio-Rad, model 550) was used to detect absorbance at 490 nm in each well. We repeated the experiments three times. Cell viability was calculated using the following formula: […].

[1] = tested on: normal nasopharyngeal mucosal epithelial cell line NP69; assay: CCK-8 cell viability assay, NP69; format: cell-based; conditions: NP69 cells
Experimental: as §1

S18 and C666-1 cells = assay: Wound-healing assay; format: cell-based; conditions: vs cells not treated
Experimental: We seeded S18 and C666-1 cells in 6-well plates at 80% to 90% confluence. After a 24-h incubation period, cells were wounded by using a 0.2-mL pipette tip to scratch the subconfluent cell monolayer. Then, we removed the detached cells by washing with PBS just before casticin 16 µM was added to each well of the plate. Cells were maintained in serum-free medium and allowed to migrate for 24 h. An inverted microscope was used to capture cell migration images after 24 h. The speed of migration was determined by dividing the length of the gap and the wound areas in the resultant images.

S18 cells [2] = assay: Transwell migration assay; format: cell-based; conditions: concentration-dependent
S18 cells [3] = assay: Colony formation assay; format: cell-based
Experimental: S18 and C666-1 cells were incubated in 6-well plates with either 0, 1, 2, and 4 µM casticin for 12 h with 1 µM casticin for 0, 6, 12, and 24 h. There after, 500 cells were seeded in each well of a 6-well plate and cultured without casticin for 8–10 days. Subsequently, the cells were fixed with methanol and stained with haematoxylin. After washing and drying, colonies with more than 50 cells were counted under a microscope (Leica, Wetzlar, Germany).

S18 cells [4] = assay: S18 xenograft mouse model; format: in vivo, nude mice
Experimental: (§2) Generation and characterization of the xenograft mouse model were conducted in accordance with the guidelines of the Ministry of Science and Technology of China and were approved by the Animal Ethics Committee of Southern Medical University. All efforts were made to minimize animal suffering during the experiments. Five-week-old nude mice were obtained from the Guangdong Experimental Animal Ccenter. To assess the tumour growth, 5 × 10^6 S18 cells and 1 × 10^7 C666-1 cells were injected subcutaneously into the left or right side of the back of each mouse (three mice per group). When tumours reached approximately 100 mm^3, the mice were randomized to the control and casticin treatment groups. Casticin was diluted in 10% DMSO in normal saline (NS) and injected intraperitoneally at 40 mg/kg daily, while the control group received only NS vehicle. Tumour sizes were measured with a caliper and recorded every 3 days. Tumour volume was calculated as follows: tumour volume = (length × width^2) × 0.5. Body weight was recorded every 2–3 days during the treatment, and the tumour weight was measured at the end of the experiment.

C666-1 cells [5] = assay: C666-1 xenograft mouse model; format: in vivo, nude mice; conditions: 40 mg/kg daily i.p.
Experimental: as §2

S18 cells [6] = assay: Cell cycle analysis by flow cytometry, S18; format: cell-based; conditions: 8 µM casticin for 24 h
Experimental: (§3) S18 and C666-1 cells were treated with 0, 2, 4, and 8 µM casticin for 24 h. The cells were then collected, washed with phosphate-buffered saline (PBS), and fixed with 75% ethanol overnight. Subsequently, the cells were centrifuged (1500 rpm, 5 min) and incubated with 10 mg/mL RNase and 1 mg/mL propidium iodide (PI) at 37 °C for 30 min in the dark. Finally, we analysed cell cycle distribution by using flow cytometry (FACSCalibur; BD Biosciences, Bedford, MA, USA).

C666-1 cells [7] = assay: Cell cycle analysis by flow cytometry, C666-1; format: cell-based; conditions: 8 µM casticin for 24 h
Experimental: as §3

S18 cells [8] = assay: Annexin V/PI staining assay; format: cell-based; conditions: 48 h
Experimental: For the apoptosis test, S18 and C666-1 cells were treated with casticin at concentrations of 0, 1, 2, and 4 µM and of 0, 2, 4, and 8 µM for 48 h. Next, cells were collected and washed once with PBS. After centrifugation (1500 rpm, 5 min), cells were resuspended in 1× annexin V (AV) binding buffer and incubated with 5 µL of AV and PI at 37 °C for 30 min. Cell apoptosis was evaluated by using flow cytometry (FACSCalibur).

[9] = tested on: S18, CNE2, C666-1 tumour spheres; assay: 3D tumour sphere formation assay; format: cell-based; conditions: 20 µM casticin for 72 h; vs untreated spheres
Experimental: S18, CNE2, and C666-1 cells (2 × 10^4 each) were cellected, counted and seeded into a cell culture flask with a novel 3D tumour sphere culture system. The 3D tumour sphere culture system with NPC cells was cultured at 37 °C in a humid atmosphere with 5% CO2, the diameters of tumour spheroids were measured when the tumour sphere diameter was ≥ […] [15] and then incubated with 20 µM casticin for 72 h, the original medium was discarded, the cells were cultured for approximately 1 week, and the tumour spheres that were ≥ 100 µm in diameter were counted under a bright field microscope.

panel of 468 kinases = assay: KINOMEscan selectivity profiling; format: binding, human; conditions: 10 μM
Experimental: (§4) Selectivity profiling of casticin against a selected panel of 468 kinases distributed throughout the kinome was performed by DiscoverRx (http://www.discoverx.com/home) using the KINOMEscan screening platform at a test concentration of 10 μM. Since KINOMEscan is a binding assay and may not reflect the inhibitory activity of a compound, the binding constant (Kd) of casticin was calculated from a standard dose–response curve using the Hill equation: Response = Background + (Signal − Background)/[1 + (Kd^Hill Slope/Dose^Hill Slope)]. We then tested casticin in the SelectScreen assay (Invitrogen, USA) to calculate the IC50 of casticin that directly targeted the active site of ATP in PI3K kinase.

[10] = tested on: PI3K family, including wild-type and mutant kinases; assay: KINOMEscan binding to PI3K family; design: species or system human; conditions: 10 μM
Experimental: as §4

[11] = target: T1, PIK3CA ( p110 alpha/p85 alpha ) (Homo sapiens, UniProt P42336); assay: SelectScreen biochemical kinase activity assay
T1 construct: purchased Invitrogen (SelectScreen service)
Experimental: as §4

[12] = target: T2, PIK3CA E542K/PIK3R1 (p110 alpha/p85 alpha) (Homo sapiens, UniProt P42336, E542K); assay: SelectScreen biochemical kinase activity assay
T2 construct: purchased Invitrogen (SelectScreen service)
Experimental: as §4

[13] = target: T3, PIK3CA E545K/PIK3R1 (p110 alpha E545K/p85 alpha) (Homo sapiens, UniProt P42336, E545K); assay: SelectScreen biochemical kinase activity assay
T3 construct: purchased Invitrogen (SelectScreen service)
Experimental: as §4

[14] = target: T4, PIK3CA/PIK3R3 (p110a/p55 gamma) (Homo sapiens, UniProt P42336); assay: SelectScreen biochemical kinase activity assay
T4 construct: purchased Invitrogen (SelectScreen service)
Experimental: as §4

[15] = tested on: PI3K/AKT/mTOR signalling pathway; assay: Western blotting, PI3K/AKT/mTOR signalling in S18 and C666-1; format: cell-based
Description: (§5) We used standard approaches and methods for Western blotting (WB) analyses. In brief, nasopharyngeal carcinoma cells were lysed on ice in Pierce RIPA buffer (Thermo Scientific) containing a Halt protease inhibitor cocktail (Sigma-Aldrich) and phosphatase inhibitors (Keygen Biotech). We measured protein concentration using a Beyotime protein assay protocol following the manufacturer’s instructions. Proteins were separated by using sodium dodecyl sulfate polyacrylamide gel electrophoresis and were then transferred to polyvinylidene difluoride membranes (0.45 µm; Millipore). […] The total S6, AKT, and mTOR antibodies were used on the same blots as the respective phosphorylated proteins after stripping (stripping buffer, CWBIO, China). All primary antibodies were diluted in Tris-buffered saline containing Tween 20 and 5% bovine serum albumin (BSA), and a peroxidase conjugate (Bioworld) was used as the secondary antibody. Anti-β-actin (20536-I, Proteintech) was used as a loading control. Immuno-reactive bands were visualized using an enhanced chemo-luminescence kit (Thermo Fisher Scientific), and images were captured using a ChemiDoc™ XRS molecular imager (Bio-Rad). Densitometry of band intensity was performed using ImageJ software.

BCL-2, BAX, p21 = assay: Western blotting, cell cycle and apoptosis related proteins; format: cell-based
Description: as §5

Nanog, sox2, and Oct4 = assay: Western blotting, stem cell markers; format: cell-based; conditions: C666-1; 0, 4, 8, 16 µM; 24 h; dose-dependent
Description: as §5

HONE1 and CNE1 = assay: Viability assay, response to BYL719; format: cell-based; conditions: 1 µM BYL719, 72 h
Experimental: as §1
To identify BYL719-insensitive NPC cell lines, the response of 12 NPC cell lines to BYL719 was screened by viability assay (Fig. 5a). […] Only two NPC cell lines, HONE1 and CNE1, were sensitive to 1 µM BYL719 after 72 h (Fig. 5a). Both sensitive cell lines increased S-phase arrest and apoptosis rates (as measured by AV staining) compared with the those in the BYL719-insensitive cell lines (Fig. 5b, c). We studied PI3K signalling in three resistant (S18, C666-1 and HONE-EBV+) (Fig. 5d) and two sensitive cell lines (HONE1 and CNE1) after treatment with a gradient of BYL719 concentrations (Fig. 5e). […]

[16] = tested on: phosphorylation of S6, AKT and mTOR; assay: Western blotting, PI3K signalling after BYL719 in sensitive and resistant cell lines; format: cell-based; conditions: sensitive cells (HONE1, CNE1) compared to resistant cells (S18, C666-1, HONE-EBV+)
Description: as §5, with “All primary antibodies were diluted in Tris-buffered saline containing Tween 20 and 5% bovine serum albumin (BSA), and a peroxidase conjugate (Bioworld) was used as the secondary antibody. Anti-β-actin (20536-I, Proteintech) was used as a loading control.” left out, “Densitometry of band intensity was performed using ImageJ software.” left out
To identify BYL719-insensitive NPC cell lines, the response of 12 NPC cell lines to BYL719 was screened by viability assay (Fig. 5a). […] Both sensitive cell lines increased S-phase arrest and apoptosis rates (as measured by AV staining) compared with the those in the BYL719-insensitive cell lines (Fig. 5b, c). […]

p110α = tested on: p110α; design: method as in PMID 23903756; conditions: 1 μM; cited from earlier work
[17] = 40 mg/kg daily i.p., vs NS group
[18] = read-out: Inhibited kinase activity(%) at 1μM of Casticin

T2 sequence (P42336 whole entry E542K): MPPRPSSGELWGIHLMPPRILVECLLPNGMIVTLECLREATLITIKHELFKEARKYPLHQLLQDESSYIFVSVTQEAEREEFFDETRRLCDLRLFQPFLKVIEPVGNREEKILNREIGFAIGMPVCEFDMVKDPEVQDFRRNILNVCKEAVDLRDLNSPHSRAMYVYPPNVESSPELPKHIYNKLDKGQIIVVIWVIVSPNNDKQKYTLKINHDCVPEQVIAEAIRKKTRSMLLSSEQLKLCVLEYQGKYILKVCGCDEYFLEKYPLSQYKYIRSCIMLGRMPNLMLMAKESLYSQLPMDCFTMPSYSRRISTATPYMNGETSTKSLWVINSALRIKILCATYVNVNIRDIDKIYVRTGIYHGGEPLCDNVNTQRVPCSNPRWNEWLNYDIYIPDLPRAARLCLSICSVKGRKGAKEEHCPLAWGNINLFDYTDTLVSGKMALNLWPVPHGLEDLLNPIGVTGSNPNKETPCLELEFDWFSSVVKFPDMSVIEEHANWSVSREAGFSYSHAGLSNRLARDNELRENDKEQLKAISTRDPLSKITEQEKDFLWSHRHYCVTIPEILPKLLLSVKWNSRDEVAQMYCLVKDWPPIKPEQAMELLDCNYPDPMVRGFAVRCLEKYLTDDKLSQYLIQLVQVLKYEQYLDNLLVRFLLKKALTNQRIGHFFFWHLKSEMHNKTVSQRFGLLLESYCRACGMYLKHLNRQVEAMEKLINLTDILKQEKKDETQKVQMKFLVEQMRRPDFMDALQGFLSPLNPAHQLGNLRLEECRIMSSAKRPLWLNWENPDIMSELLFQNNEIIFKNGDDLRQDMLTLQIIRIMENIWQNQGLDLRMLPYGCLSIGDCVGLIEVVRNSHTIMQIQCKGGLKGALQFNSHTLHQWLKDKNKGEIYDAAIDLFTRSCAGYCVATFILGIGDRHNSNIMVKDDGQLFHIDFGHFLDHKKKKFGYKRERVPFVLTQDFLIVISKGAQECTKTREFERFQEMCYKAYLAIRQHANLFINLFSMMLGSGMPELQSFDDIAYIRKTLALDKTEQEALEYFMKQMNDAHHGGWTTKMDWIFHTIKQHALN
T2 sequence (P27986 whole entry partner): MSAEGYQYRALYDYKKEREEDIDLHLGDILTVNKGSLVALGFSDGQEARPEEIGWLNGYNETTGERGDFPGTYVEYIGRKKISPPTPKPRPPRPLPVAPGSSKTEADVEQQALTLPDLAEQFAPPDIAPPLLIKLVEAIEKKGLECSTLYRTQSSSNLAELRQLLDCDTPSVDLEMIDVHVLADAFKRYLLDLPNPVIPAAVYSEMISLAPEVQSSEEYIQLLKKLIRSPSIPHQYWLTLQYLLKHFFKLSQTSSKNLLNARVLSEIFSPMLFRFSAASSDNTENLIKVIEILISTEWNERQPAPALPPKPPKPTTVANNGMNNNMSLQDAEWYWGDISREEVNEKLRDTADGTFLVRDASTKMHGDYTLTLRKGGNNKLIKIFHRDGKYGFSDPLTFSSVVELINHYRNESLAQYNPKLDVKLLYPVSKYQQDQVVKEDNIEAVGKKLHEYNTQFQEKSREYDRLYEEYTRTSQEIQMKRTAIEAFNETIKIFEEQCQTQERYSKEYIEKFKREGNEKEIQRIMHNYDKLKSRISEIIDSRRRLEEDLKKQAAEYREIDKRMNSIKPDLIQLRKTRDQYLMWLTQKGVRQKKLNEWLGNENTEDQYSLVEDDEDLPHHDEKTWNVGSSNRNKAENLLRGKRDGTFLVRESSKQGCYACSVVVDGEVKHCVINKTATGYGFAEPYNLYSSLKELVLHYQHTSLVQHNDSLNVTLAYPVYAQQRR
T3 sequence (P42336 whole entry E545K): as the sequence (P42336 whole entry E542K) above, with K542E, E545K counted along it
T3 sequence (P27986 whole entry partner): as the sequence (P27986 whole entry partner) above
T1 sequence (P42336 whole entry): as the sequence (P42336 whole entry E542K) above, with K542E counted along it
T1 sequence (P27986 whole entry partner): as the sequence (P27986 whole entry partner) above
T4 sequence (P42336 whole entry): as the sequence (P42336 whole entry E542K) above, with K542E counted along it

COc1ccc(-c2oc3cc(OC)c(OC)c(O)c3c(=O)c2OC)cc1O [casticin, 3′,5-dihydroxy-3,4′,6,7-tetramethoxyflavone]
IC50 on viability compared with BYL719 (NPC cell lines; 12 NPC cell lines, 24 h): lower than that of BYL719
cell viability (NPC cell lines; eleven NPC cell lines, gradient of concentrations, 24, 48, 72 h, concentration-dependent): decreased
effect on cell growth compared to BYL719 [1]: less effective
cell viability ([1]; gradient of concentrations, 24, 48, 72 h): resistant
gap-closing speeds (S18 and C666-1 cells): significantly decreased
number of migrating cells (S18 cells [2]): significantly reduced
clonogenic ability (S18 cells [3]; 1 µM casticin, vs control group): diminished as early as 6 h
clonogenic activity (S18 cells [3]; S18 cells, 0, 1, 2, 4 µM for 12 h): significant reduction
damage to the liver or kidney (haematoxylin and eosin histopathology) (S18 cells [4]; 40 mg/kg daily i.p.): without any obvious subsequent damage to the liver or kidney
tumour size (S18 cells [4]; 40 mg/kg daily i.p. for 12 days, 18 days after implantation): smaller than those in the control group
tumour growth rate (tumour volume) (S18 cells [4]; [17]): lower than NS group
tumour weight (S18 cells [4]; [17]): lighter than NS group
ratios of liver and kidney weight to body weight (S18 cells [4]; S18 model, 40 mg/kg daily i.p.): not statistically significant between groups
tumour growth and liver/kidney histology in C666-1 in vivo model (C666-1 cells [5]): findings similar to those with the S18 model
percentage of cells in the G2/M phase (S18 cells [6]): 62.90 ± 1.97%
percentage of cells in the G2/M phase (C666-1 cells [7]): 62.54 ± 4.91%
early and late apoptosis (S18 cells [8]; 1 μM): significantly increased
apoptotic frequency (S18 cells [8]; 4 μM): approximately 75%
tumour sphere growth [9]: significant reduction in tumour growth
S score (1) (panel of 468 kinases): 0.01
binding to other kinases (panel of 468 kinases; KINOMEscan): did not demonstrate strong binding
percent control number [10]: less than 1
IC50 ([11]; PI3K (p110α/p85α)): 0.616 µM
inhibition at 1 µM [11, 18]: 56%
IC50 [12]: 0.306 µM
inhibition at 1 µM [12, 18]: 57%
IC50 [13]: 0.544 µM
inhibition at 1 µM [13, 18]: 54%
IC50 [14]: 0.574 µM
inhibition at 1 µM [14, 18]: 46%
phosphorylation of AKT (T308, S473) and mTOR (Ser2481, Ser2448) ([15]; 24 h, increasing casticin concentrations, dose-dependent): significant reduction
p21 expression (BCL-2, BAX, p21; S18 and C666-1, 24 h): increased
BCL-2/BAX ratio (BCL-2, BAX, p21; casticin-treated S18 and C666-1 cells): significantly decreased in a dose-dependent manner
expression of tumour stemness markers Nanog, sox2, Oct4 (Nanog, sox2, and Oct4): reduced expression

Cc1nc(NC(=O)N2CCC[C@H]2C(N)=O)sc1-c1ccnc(C(C)(C)C(F)(F)F)c1 [BYL719]
sensitivity class by viability (IC50 cut-off 1 μM) (HONE1 and CNE1): sensitive
phosphorylation of ATK (Ser473 and Thr308) or mTORC1 ([15]; BYL719 1 µM alone, 12 h): did not reduce
phosphorylation of S6, AKT and mTOR [16]: significantly reduced
block of p110 subunits (p110α): blocked p110α without affecting the other p110 subunits
